The test deals with T1, COX-2 (Homo sapiens, UniProt P35354).
T1 construct: purchased Beyotime Biotechnology (Shanghai, China)
T1 sequence (P35354 18-604): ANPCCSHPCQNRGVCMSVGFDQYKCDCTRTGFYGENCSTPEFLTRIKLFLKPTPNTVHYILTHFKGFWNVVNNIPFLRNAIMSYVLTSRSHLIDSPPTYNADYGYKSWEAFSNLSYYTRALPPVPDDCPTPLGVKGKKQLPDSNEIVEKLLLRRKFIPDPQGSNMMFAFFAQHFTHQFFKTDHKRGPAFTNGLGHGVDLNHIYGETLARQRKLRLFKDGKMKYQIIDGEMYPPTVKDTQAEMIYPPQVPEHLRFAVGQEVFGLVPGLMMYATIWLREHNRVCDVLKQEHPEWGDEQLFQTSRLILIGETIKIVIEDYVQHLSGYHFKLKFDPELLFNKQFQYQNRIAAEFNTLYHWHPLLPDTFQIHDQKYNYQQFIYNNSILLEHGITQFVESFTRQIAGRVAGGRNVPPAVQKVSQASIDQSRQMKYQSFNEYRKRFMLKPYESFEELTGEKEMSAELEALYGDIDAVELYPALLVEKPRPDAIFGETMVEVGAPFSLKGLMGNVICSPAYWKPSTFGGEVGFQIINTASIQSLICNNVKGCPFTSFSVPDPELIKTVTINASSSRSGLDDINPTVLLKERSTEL
The experiment in a line: COX-2 inhibitor screening kit, in vitro enzyme activity test (fluorescence). Format: biochemical. To be noted: inhibition of COX-2 enzyme activity, probit regression. Here is the method:
The COX-2 inhibitory activities of four monomer compounds and Shiyifang Vinum were detected with the COX-2 inhibitor screening kit. The blank control, 100% enzyme activity control, positive inhibition control, and sample wells were prepared, with three repeat wells in each group.

The term IC50 denotes the concentration that gives 50% inhibition. A low value points to inhibition by little substance. Consider `O=c1c(O)c(-c2ccc(O)cc2)oc2cc(O)cc(O)c12` [Kaempferol, kaempferol], for which the IC50 was 30.7 µM. This lies in the double-digit micromolar range.
Next, `O=c1cc(-c2ccc(O)c(O)c2)oc2cc(O)cc(O)c12` [Luteolin, luteolin]: 10.8 µM.
Next, `O=c1c(O)c(-c2ccc(O)c(O)c2)oc2cc(O)cc(O)c12` [Quercetin, quercetin]: 3.96 µM.

(Values after PMC7817263, “Analysis of the Anti-Inflammatory and Analgesic Mechanism of Shiyifang Vinum Based on Network Pharmacology” (Evidence-based Complementary and Alternative Medicine : eCAM, 2021).)
